The values below come from US9403776B2, “Aryl- and heteroaryl-substituted tetrahydrobenzazepines and use thereof to block reuptake of norepinephrine, dopamine, and serotonin” (Albany Molecular Research, Inc., priority 2005, dated 2016).

As usually defined, the melting point is the temperature of the solid-liquid transition.

Structures can show the parent of a compound that is named as a salt.

`CN1CCC(c2ccccc2)c2ccc(-c3ncccn3)cc2C1` (single isomer, unassigned; (+)) (as salt: maleate) [Example 27, (+)-2-methyl-5-phenyl-8-(pyrimidin-2-yl)-2,3,4,5-tetrahydro-1H-benzo[c]azepine] yielded a melting point of 76 to 78 °C.
With `CCN1CCC(c2ccccc2)c2ccc(N3CCOCC3)cc2C1` (single isomer, unassigned; (+)) (as salt: maleate) [Example 57 (+), (+)-4-(2-ethyl-5-phenyl-2,3,4,5-tetrahydro-1H-benzo[c]azepin-8-yl)morpholine] the figure was 64 to 66 °C; with `CN1CCC(c2ccc3ccccc3c2)c2ccc(-c3cccnn3)cc2C1` (single isomer, unassigned; (+)) (as salt: maleate) [Example 50, (+)-2-methyl-5-naphthalen-2-yl-8-pyridazin-3-yl-2,3,4,5-tetrahydro-1H-benzo[c]azepine], 99 to 102 °C.
Then `COc1ccc2c(c1)CN(C)CCC2c1cc(F)c(C#N)c(F)c1` (stereo not shown) (as salt: citrate), with 82 to 86 °C; and `CN1CCC(c2ccc(Cl)cc2)c2ccc(-c3ncccn3)cc2C1` (single isomer, unassigned; (+)) (as salt: maleate) [Example 44, (+)-5-(4-chlorophenyl)-2-methyl-8-pyrimidin-2-yl-2,3,4,5-tetrahydro-1H-benzo[c]azepine], with 84 to 85 °C; and `CN1CCC(c2ccc(Cl)cc2)c2ccc(-c3cnccn3)cc2C1` (single isomer, unassigned; (-)) (as salt: maleate) [Example 41 (−), (−)-5-(4-chlorophenyl)-2-methyl-8-(pyrazin-2-yl)-2,3,4,5-tetrahydro-1H-benzo[c]azepine], with 82 to 84 °C.
Take `CC(C)N1CCC(c2ccccc2)c2ccc(N3CCOCC3)cc2C1` (single isomer, unassigned; (-)) (as salt: maleate) [Example 58 (−), (−)-4-(2-isopropyl-5-phenyl-2,3,4,5-tetrahydro-1H-benzo[c]azepin-8-yl)morpholine]: the melting point lay in the range of 195 to 197 °C.
With `COc1ccc2c(c1)CN(C(C)C)CCC2c1ccccc1` (racemic) (as salt: maleate) [Example 55, (+/−)-2-isopropyl-8-methoxy-5-phenyl-2,3,4,5-tetrahydro-1H-benzo[c]azepine] the figure was 172 to 175 °C; with `COc1ccc2c(c1)CN(C)CCC2c1ccc(O)c(F)c1` (stereo not shown) (as salt: maleate) [Example 63, 2-fluoro-4-(8-methoxy-2-methyl-2,3,4,5-tetrahydro-1H-benzo[c]azepin-5-yl)phenol], 50 to 54 °C; with `CN1CCC(c2ccccc2)c2ccc(-c3ccc4nccn4c3)cc2C1` (single isomer, unassigned; (+)) (as salt: tartrate) [Example 73, (+)-8-(imidazo[1,2-a]pyridin-6-yl)-2-methyl-5-phenyl-2,3,4,5-tetrahydro-1H-benzo[c]azepine], 142 to 144 °C.
With `CCN1CCC(c2ccccc2)c2ccc(N3CCOCC3)cc2C1` (single isomer, unassigned; (-)) (as salt: maleate) [Example 57 (−), (−)-4-(2-ethyl-5-phenyl-2,3,4,5-tetrahydro-1H-benzo[c]azepin-8-yl)morpholine] the figure was 68 to 72 °C; with `Cc1ccc(-c2ccc3c(c2)CN(C)CCC3c2ccc(F)cc2)nn1` (single isomer, unassigned; (+)) (as salt: maleate) [Example 89, (+)-5-(4-fluorophenyl)-2-methyl-8-(6-methylpyridazin-3-yl)-2,3,4,5-tetrahydro-1H-benzo[c]azepine], 173 to 176 °C.
Then `CN1CCC(c2ccccc2)c2ccc(-c3ccncc3)cc2C1` (single isomer, unassigned; (+)) (as salt: maleate) [Example 31, (+)-2-methyl-5-phenyl-8-(pyridin-4-yl)-2,3,4,5-tetrahydro-1H-benzo[c]azepine], with 91 to 93 °C.
`COc1cccc2c1C(c1ccccc1)CCN(C)C2` (racemic) (as salt: fumarate) [Example 2, (+/−)-6-methoxy-2-methyl-5-phenyl-2,3,4,5-tetrahydro-1H-benzo[c]azepine] had a melting point of 154 to 156 °C.
Then `CN1CCC(c2ccccc2)c2ccc(-c3cnccn3)cc2C1` (single isomer, unassigned; (+)) (as salt: maleate) [Example 29, (+)-2-methyl-5-phenyl-8-(pyrazin-2-yl)-2,3,4,5-tetrahydro-1H-benzo[c]azepine], with 67 to 69 °C.
Then `CN1CCC(c2ccc(Cl)cc2)c2ccc(-c3cccnn3)cc2C1` (single isomer, unassigned; (+)) (as salt: hydrochloride) [Example 40, (+)-5-(4-chlorophenyl)-2-methyl-8-pyridazin-3-yl-2,3,4,5-tetrahydro-1H-benzo[c]azepine], with 187 to 189 °C (dec.); and `Cc1ccc(-c2ccc3c(c2)CN(C)CCC3c2ccc(Cl)cc2)nn1` (single isomer, unassigned; (+)) (as salt: hydrochloride) [Example 39, (+)-5-(4-chlorophenyl)-2-methyl-8-(6-methyl-pyridazin-3-yl)-2,3,4,5-tetrahydro-1H-benzo[c]azepine], with 179 to 181 °C (dec.).
With `COc1ccc2c(c1)CN(C)CCC2c1ccc(F)c(Cl)c1` (racemic) (as salt: hydrochloride) [Example 11, (+/−)-5-(3-chloro-4-fluorophenyl)-8-methoxy-2-methyl-2,3,4,5-tetrahydro-1H-benzo[c]azepine] the figure was 167 to 169 °C; with `CN1CCC(c2ccc(Cl)cc2)c2ccc(-c3ccc(N(C)C)nn3)cc2C1` (single isomer, unassigned) (as salt: maleate) [Example 45, {6-[5-(4-chlorophenyl)-2-methyl-2,3,4,5-tetrahydro-1H-benzo[c]azepine-8-yl]-pyridazin-3-yl}-dimethylamine], 96 to 98 °C.
The compound `COc1ccc2c(c1)CN(C)CCC2c1cc(F)c(O)c(F)c1` (stereo not shown) (as salt: citrate) [Example 62, 2,6-difluoro-4-(8-methoxy-2-methyl-2,3,4,5-tetrahydro-1H-benzo[c]azepin-5-yl)phenol] returned a melting point of 88 to 90 °C.
Compound `CN1CCC(c2ccc(F)cc2)c2ccc(N3CCOCC3)cc2C1` (single isomer, unassigned; (+)) (as salt: maleate) [Example 85, (+)-4-(5-(4-fluorophenyl)-2-methyl-2,3,4,5-tetrahydro-1H-benzo[c]azepin-8-yl)morpholine] returned a melting point of 87 to 90 °C.
On to `CN1CCC(c2ccc(Cl)cc2)c2ccc(-c3ccc(N(C)C)nn3)cc2C1` (single isomer, unassigned; (-)) (as salt: maleate) [Example 46, (−)-{6-[5-(4-chlorophenyl)-2-methyl-2,3,4,5-tetrahydro-1H-benzo[c]azepine-8-yl]-pyridazin-3-yl}-dimethylamine], for which the melting point was 109 to 110 °C.
Compound `CN1CCC(c2ccccc2)c2ccc(-c3cccc(N)n3)cc2C1` (single isomer, unassigned; (+)) (as salt: maleate) [Example 32, (+)-6-(2-methyl-5-phenyl-2,3,4,5-tetrahydro-1H-benzo[c]azepin-8-yl)pyridine-2-amine] registered a melting point of 112 to 114 °C.
As for `Cc1noc(C)c1-c1ccc2c(c1)CN(C)CCC2c1ccc(Cl)cc1` (single isomer, unassigned; (-)) (as salt: maleate) [Example 42, (−)-5-(4-chlorophenyl)-8-(3,5-dimethylisoxazol-4-yl)-2-methyl-2,3,4,5-tetrahydro-1H-benzo[c]azepine], the melting point lay in the range of 66 to 68 °C.
Then `FCCN1CCC(c2ccccc2)c2ccc(N3CCOCC3)cc2C1` (single isomer, unassigned; (+)) (as salt: tartrate) [Example 60, (+)-4-(2-(2-fluoroethyl)-5-phenyl-2,3,4,5-tetrahydro-1H-benzo[c]azepin-8-yl)morpholine], with 102 to 105 °C; and `OCCN1CCC(c2ccccc2)c2ccc(N3CCOCC3)cc2C1` (single isomer, unassigned; (+)) (as salt: tartrate) [Example 59, (+)-2-(8-morpholino-5-phenyl-4,5-dihydro-1H-benzo[c]azepin-2(3H)-yl)ethanol], with 93 to 96 °C.
With `Cc1ccc(-c2ccc3c(c2)CN(C)CCC3c2cccc(F)c2)nn1` (single isomer, unassigned; (+)) (as salt: citrate) [Example 84 (+), (+)-5-(3-fluorophenyl)-2-methyl-8-(6-methylpyridazin-3-yl)-2,3,4,5-tetrahydro-1H-benzo[c]azepine] the figure was 90 to 95 °C.
With `COc1ccc2c(c1)CN(C)CCC2c1ccc2sccc2c1` (single isomer, unassigned; (-)) (as salt: maleate) [Example 52 (−), (−)-5-benzo[b]thiophen-5-yl-8-methoxy-2-methyl-2,3,4,5-tetrahydro-1H-benzo[c]azepine] the figure was 92 to 95 °C; with `CN1CCC(c2ccccc2)c2ccc(CN3CCOCC3)cc2C1` (single isomer, unassigned; (+)) (as salt: tartrate) [Example 22, (+)-4-((2-methyl-5-phenyl-2,3,4,5-tetrahydro-1H-benzo[c]azepin-8-yl)methyl)morpholine], 124 to 127 °C.
In the case of `CN1CCC(c2ccc3ccccc3c2)c2ccc(N3CCOCC3)cc2C1` (single isomer, unassigned; (+)) (as salt: maleate) [Example 51, (+)-2-methyl-8-morpholin-4-yl-5-naphthalen-2-yl-2,3,4,5-tetrahydro-1H-benzo[c]azepine], the melting point lay within 110 to 112 °C.
For `Cc1noc(C)c1-c1ccc2c(c1)CN(C)CCC2c1ccc(Cl)cc1` (single isomer, unassigned; (+)) (as salt: maleate) [Example 43, (+)-5-(4-chlorophenyl)-8-(3,5-dimethylisoxazol-4-yl)-2-methyl-2,3,4,5-tetrahydro-1H-benzo[c]azepine], the melting point was in the range of 196 to 198 °C.
